Laboratory results from ChEMBL document CHEMBL1201862, “PubChem BioAssay data set” (2004).
Activity calls are given as the source filed them.

Key:
[1] = biological target: Prothrombin (Homo sapiens, UniProt P00734); assay: Thrombin 1536 HTS Dose Response Confirmation. [Related pubchem assays: 1046 (Thrombin 1536 HTS; hits were confirmed in this assay)]; format: functional
[2] = A cytotoxicity screen of small molecule inhibitors of the PhoP region in Salmonella typhi identified in the primary screen. [Related pubchem assays: 1850, 1864, 1985 ]; format: functional
[3] = biological target: T1, Protein skinhead-1 (Caenorhabditis elegans, UniProt P34707); format: functional
T1 sequence (P34707 whole entry): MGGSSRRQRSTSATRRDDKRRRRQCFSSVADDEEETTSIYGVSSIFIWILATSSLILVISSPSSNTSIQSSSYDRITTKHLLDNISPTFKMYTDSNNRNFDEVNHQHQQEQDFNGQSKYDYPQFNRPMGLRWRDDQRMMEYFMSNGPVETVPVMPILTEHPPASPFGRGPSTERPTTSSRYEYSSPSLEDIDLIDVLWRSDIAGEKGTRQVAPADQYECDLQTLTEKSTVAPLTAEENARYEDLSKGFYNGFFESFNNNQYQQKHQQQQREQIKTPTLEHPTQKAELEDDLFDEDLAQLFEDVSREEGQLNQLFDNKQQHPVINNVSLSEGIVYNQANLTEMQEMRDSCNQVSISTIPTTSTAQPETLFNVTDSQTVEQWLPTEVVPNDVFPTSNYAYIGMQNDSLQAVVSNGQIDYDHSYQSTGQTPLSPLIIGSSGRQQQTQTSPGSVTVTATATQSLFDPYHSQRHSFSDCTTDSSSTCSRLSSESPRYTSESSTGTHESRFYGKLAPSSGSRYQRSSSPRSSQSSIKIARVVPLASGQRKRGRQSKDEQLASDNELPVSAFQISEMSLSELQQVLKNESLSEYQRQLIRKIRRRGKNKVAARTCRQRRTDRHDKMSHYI

[4] = biological target: T2, Carboxy-terminal domain RNA polymerase II polypeptide A small phosphatase 1 (Homo sapiens, UniProt Q9GZU7); assay: inhibitors of CTDSP1, concentration-response testing, biochemical assay, absorbance-based, actives from ultra-high-throughput screening (AID 540297); format: functional
T2 sequence (Q9GZU7 whole entry): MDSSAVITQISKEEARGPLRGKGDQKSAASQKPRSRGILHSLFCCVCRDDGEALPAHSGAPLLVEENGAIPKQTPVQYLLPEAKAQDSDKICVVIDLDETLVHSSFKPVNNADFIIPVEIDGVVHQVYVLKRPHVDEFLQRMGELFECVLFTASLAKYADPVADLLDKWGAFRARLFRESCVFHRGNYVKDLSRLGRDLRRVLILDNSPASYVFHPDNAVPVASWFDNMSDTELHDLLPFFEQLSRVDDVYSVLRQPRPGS

[5] = test system: P388/ADR; assay: cells; format: functional; settings: Mus musculus
[6] = test system: SN12K1; assay: cells; format: functional; settings: Homo sapiens
[7] = test system: P388; assay: cells; format: functional; settings: Mus musculus
[8] = biological target: 26S proteasome non-ATPase regulatory subunit 14 (Homo sapiens, UniProt O00487); assay: inhibition of proteasome subunit RPN11 – biochemical, fluorescence polarization, uHTS hits, confirmation (AID 602368); format: functional
Sequence of 26S proteasome non-ATPase regulatory subunit 14 (O00487 whole entry): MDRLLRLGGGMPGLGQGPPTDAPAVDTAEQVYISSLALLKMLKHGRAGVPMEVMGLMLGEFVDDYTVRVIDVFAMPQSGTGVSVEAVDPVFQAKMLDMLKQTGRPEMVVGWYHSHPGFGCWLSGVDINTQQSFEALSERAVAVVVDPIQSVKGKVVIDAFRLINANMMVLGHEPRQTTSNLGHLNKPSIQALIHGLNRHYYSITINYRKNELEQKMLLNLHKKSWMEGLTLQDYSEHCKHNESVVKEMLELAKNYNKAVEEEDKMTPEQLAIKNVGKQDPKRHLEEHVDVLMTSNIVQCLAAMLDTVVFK

[9] = biological target: 72 kDa type IV collagenase (Homo sapiens, UniProt P08253); assay: Dose Response validation of uHTS RPN11 inhibitor hits using a MMP-2 Fluorescence assay.; format: functional
Sequence of 72 kDa type IV collagenase (P08253 whole entry): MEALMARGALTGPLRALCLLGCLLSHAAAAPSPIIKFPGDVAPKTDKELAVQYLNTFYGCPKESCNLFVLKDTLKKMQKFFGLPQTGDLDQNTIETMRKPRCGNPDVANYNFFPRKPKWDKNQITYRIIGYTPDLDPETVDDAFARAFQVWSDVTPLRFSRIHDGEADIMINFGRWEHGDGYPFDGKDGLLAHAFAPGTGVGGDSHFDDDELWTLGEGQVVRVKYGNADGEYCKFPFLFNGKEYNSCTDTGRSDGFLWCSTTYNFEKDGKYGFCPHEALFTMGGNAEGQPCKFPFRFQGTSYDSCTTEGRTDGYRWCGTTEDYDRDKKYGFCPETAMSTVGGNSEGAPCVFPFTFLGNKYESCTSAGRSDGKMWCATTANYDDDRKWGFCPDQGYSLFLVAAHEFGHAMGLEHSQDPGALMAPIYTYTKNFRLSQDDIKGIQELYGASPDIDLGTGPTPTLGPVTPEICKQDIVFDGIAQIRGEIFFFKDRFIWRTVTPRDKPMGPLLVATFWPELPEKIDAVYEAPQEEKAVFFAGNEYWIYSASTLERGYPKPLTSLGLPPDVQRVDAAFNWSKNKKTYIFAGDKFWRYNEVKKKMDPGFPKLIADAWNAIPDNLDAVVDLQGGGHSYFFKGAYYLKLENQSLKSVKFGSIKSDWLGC

[10] = biological target: Prothrombin (Bos taurus, UniProt P00735); assay: thrombin inhibition, dose response, biochemical, fluorescence polarization, uHTS hits (AID 602369); format: functional
[11] = microbe, parasite or virus in culture; format: functional; settings: Mycobacterium tuberculosis
[12] = off-target signal loss in HeLa-CEM21 co-culture – HeLa F-luc CTL cells, cherry-picked, counter-screen for HIV-1 Env fusion inhibitor project, dose response (AID 652040); format: functional, cell-based;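 note: potency for signal decrease marking cytotoxic or nonspecific inhibition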
[13] = inhibitors of clade B AD8 Env fusion, dose response, cell-based, cherry-pick (AID 652062); format: functional;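 note: luciferase signal from cell-cell fusion driven by HIV-1 clade B AD8 Env; potency is for inhibitors of fusion seen as a drop in luminescence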
[14] = biological target: Nonstructural protein 1 (Influenza A virus, UniProt Q194T2); format: functional, Influenza A virus (A/California/07/2009(H1N1))
Sequence of Nonstructural protein 1 (Q194T2 whole entry): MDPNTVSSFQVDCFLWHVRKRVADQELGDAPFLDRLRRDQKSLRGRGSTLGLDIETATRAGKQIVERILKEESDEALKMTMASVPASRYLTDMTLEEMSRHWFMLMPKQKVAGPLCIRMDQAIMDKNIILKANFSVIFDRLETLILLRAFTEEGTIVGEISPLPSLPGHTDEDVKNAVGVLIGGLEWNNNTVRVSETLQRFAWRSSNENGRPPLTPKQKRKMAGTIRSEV

With `COC(c1ccccc1)c1nnc(CCC(=O)N(C)Cc2cccc(-n3cccn3)c2)o1` (stereo not drawn) the IC50 [1] was > 50 µM (not active).

In the case of `CCOC(=O)N1CCN(CCC(=O)c2ccc(Br)cc2)CC1`, the EC50 [2] is reported as > 50 µM (active).

In the case of `O=C(Nc1ccc2[nH]c(-c3ccc(Br)o3)nc2c1)c1ccco1`, the EC50 [2] is reported as > 50 µM (active).

In the case of `O=C(C1CCCCC1)N1CCN(S(=O)(=O)c2ccc(Cl)cc2)CC1`, the IC50 [3] is reported as > 100 µM (inactive).

In the case of `O=C(O)CSCC(=O)NCc1cccc(C(F)(F)F)c1`, the IC50 [1] is reported as > 50 µM (not active).

In the case of `O=C1Nc2ccc(S(=O)(=O)NCc3ccccn3)c3cccc1c23`, the IC50 [4] is reported as 8.42 µM (active).

For `N/C(=N\O)N/N=C/c1cc2c(cc1Cl)OCO2`, the GI50 [5] was 23.7 µM (inactive), the GI50 [6] was 31.3 µM (inactive) and the GI50 [7] was 29.3 µM (inactive).

In the case of `C=CCN1C(=O)/C(=C\Nc2cccc([N+](=O)[O-])c2)C(=O)N(CCCC)C1=O`, the IC50 [8] is reported as 34 µM (active), the IC50 [9] is reported as > 100 µM (inactive) and the IC50 [10] is reported as 42.7 µM (active).

For `O=C1CN(CC(=O)N2CCCCC2)c2ccccc2O1`, the CC50 [11] was 38.6 µM (active).

In the case of `O=C(COC(=O)c1cncc(Br)c1)Nc1nnc(-c2ccccc2)o1`, the IC50 [4] is reported as 6.29 µM (active).

In the case of `C=CCCC(=O)N1C[C@H]2CON(C)[C@H]2C[C@H]1c1ccc(N2CCCCC2)cc1`, the IC50 [8] is reported as 52.2 µM (active), the IC50 [9] is reported as > 100 µM (inactive) and the IC50 [10] is reported as 57.2 µM (active).

In the case of `Cn1cccc1C(=O)OCC(=O)NCCc1ccc(S(N)(=O)=O)cc1`, the AC50 [12] is reported as > 70 µM (inactive) and the AC50 [13] is reported as 7.13 µM (active).

For `O=C(CCCN1CCC(C(O)c2ccc(F)cc2)CC1)c1ccc(F)cc1` (stereo not drawn), the GI50 [5] was 46.1 µM (inactive), the GI50 [6] was 56.4 µM (inactive) and the GI50 [7] was 38.3 µM (inactive).

With `Cc1c2c(cc3c1[nH]c1ccccc13)C(c1ccc(Cl)cc1)=NCC2` the GI50 [5] was 0.428 µM (active), the GI50 [6] was 0.284 µM (active) and the GI50 [7] was 0.398 µM (active).

With `CO[C@H]1CN(C)C(=O)c2cc(NC(=O)C3CCOCC3)ccc2OC[C@H](C)N(Cc2nccs2)C[C@H]1C` the AC50 [12] was 43.3 µM (active) and the AC50 [13] was 24.9 µM (active).

In the case of `Cc1c2cc[n+](C)cc2c(C)c2c1[nH]c1ccccc12`, the GI50 [5] is reported as 55.5 µM (inactive), the GI50 [6] is reported as 0.416 µM (active) and the GI50 [7] is reported as 0.887 µM (active).

With `Cc1cc(N2CCN(C3CCCCC3)CC2)nc2cccc(O)c12` the EC50 [2] was > 50 µM (active) and the IC50 [14] was > 100 µM (active).

In the case of `COc1ccc(NC(=O)Cn2c(-c3ccc(OC)cc3)cn(-c3ccc(C)cc3)c2=O)cc1`, the IC50 [8] is reported as 35.2 µM (active), the IC50 [9] is reported as > 100 µM (inactive) and the IC50 [10] is reported as 48.5 µM (active).

In the case of `COc1nc(C(Cl)(Cl)Cl)c(Cl)c(OC)c1Cl` [PENCLOMEDINE], the GI50 [5] is reported as 40.6 µM (inactive), the GI50 [6] is reported as 28.3 µM (inactive) and the GI50 [7] is reported as 8.61 µM (inactive).
